Assay results as given in PubChem BioAssay (NCI).
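Five concentrations, 48 hours, 96-well plates. Abbreviation: GI50, concentration required for 50% inhibition of growth. TGI is the concentration that stops growth completely.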

What was measured:
Experiment in all cases: DTP human tumour cell line panel, 48 h
[1] = test system: 786-0 renal
[2] = test system: MDA-MB-231 breast
[3] = test system: MDA-MB-435
[4] = test system: OVCAR-5 ovarian
[5] = test system: RPMI-8226 leukemia
[6] = test system: SR leukemia
[7] = test system: NCI-H522 lung

In the case of `N#Cc1ccc(OC(=O)Nc2ccc(Cl)c(Cl)c2)cc1`, the GI50 [1] is reported as 4.83 µM, the TGI [1] is reported as 61.2 µM and the GI50 [2] is reported as 4.42 µM. The TGI [2] was 23.3 µM, the GI50 [3] was 3.17 µM and the TGI [3] was 22.4 µM. The GI50 [4] was 5.79 µM, the TGI [4] was over 100 µM and the GI50 [5] was 2.43 µM. The TGI [5] was 6.77 µM, the GI50 [6] was 7.67 µM and the TGI [6] was 93.2 µM.

For `CCCCCc1ccc(S(=O)(=O)Nc2cc(-c3csc(NC(C)=O)n3)ccc2N2CCN(C)CC2)cc1`, the GI50 [1] was 4.9 µM, the TGI [1] was 11.1 µM and the GI50 [2] was 4.75 µM. The TGI [2] was 9.91 µM, the GI50 [3] was 4.85 µM and the TGI [3] was 9.5 µM. The GI50 [7] was 6.35 µM, the TGI [7] was 13 µM and the GI50 [4] was 5 µM. For the same molecule, the TGI [4] was 9.55 µM, the GI50 [6] was 0.929 µM and the TGI [6] was 2.77 µM.

For `CCC(=O)Nc1ccc(N=NN(C)C)cc1`, the TGI [1] was over 100 µM, the TGI [2] was over 100 µM and the TGI [3] was over 100 µM. It also gave a TGI [7] of over 100 µM and a TGI [4] of over 100 µM.

In the case of `CC1C(=O)OC2CC[N+]3([O-])CC=C(COC(=O)C(C)(O)C1(C)O)C23` (stereo not drawn), the TGI [1] is reported as over 100 µM, the TGI [2] is reported as over 100 µM and the TGI [3] is reported as over 100 µM. It also gave a TGI [7] of over 100 µM, a TGI [4] of over 100 µM and a TGI [5] of over 100 µM. The TGI [6] was over 100 µM.

In the case of `COC(C(=O)[C@@H](O)[C@@H](C)O)[C@@H]1Cc2cc3cc(O[C@H]4C[C@@H](O[C@H]5C[C@@H](O)[C@H](O)C(C)O5)[C@H](O)C(C)O4)c(C)c(O)c3c(O)c2C(=O)[C@H]1O[C@H]1C[C@@H](O[C@H]2C[C@@H](O[C@H]3C[C@@H](O)[C@H](OC)C(C)O3)[C@@H](O)C(C)O2)[C@H](O)C(C)O1` (stereo partly drawn), the GI50 [1] is reported as 0.0313 µM, the TGI [1] is reported as over 26.9 µM and the GI50 [2] is reported as 0.0691 µM. It also gave a TGI [2] of over 33.3 µM, a GI50 [3] of 0.0219 µM and a TGI [3] of 0.197 µM. The GI50 [7] was 0.0101 µM, the TGI [7] was 0.0569 µM and the TGI [4] was over 33.3 µM. The GI50 [5] was 0.0141 µM, the TGI [5] was 7.13 µM and the TGI [6] was over 33.3 µM.

`CC1=CC(=O)C(C(O)(C(F)(F)F)C(F)(F)F)C(C)(C)C1` (stereo not drawn) gave a TGI [1] of over 10 µM, a TGI [2] of over 10 µM and a TGI [3] of over 10 µM. The TGI [7] was over 10 µM, the TGI [5] was over 10 µM and the TGI [6] was over 10 µM.

Work on `CC(C)C1=C2CCC3(C)C(CCC4C5C6OCC5(CCC6(C)C)CCC43C)C2(C)CC1` (stereo not drawn) yielded a TGI [1] of 33.7 µM, a TGI [2] of 37.3 µM and a TGI [3] of 36.6 µM. It also gave a TGI [7] of 36.5 µM, a TGI [4] of over 100 µM and a TGI [5] of 42.9 µM. For the same molecule, the TGI [6] was 30.6 µM.

In the case of `O=c1oc2ccc(Br)cc2c(=O)n1-c1ccc(F)cc1F`, the GI50 [1] is reported as 3.23 µM, the TGI [1] is reported as 11.6 µM and the GI50 [2] is reported as 2.11 µM. The TGI [2] was 6.96 µM, the GI50 [3] was 2.85 µM and the TGI [3] was 10.4 µM. The GI50 [7] was 2.6 µM, the TGI [7] was 14.9 µM and the GI50 [4] was 3.79 µM. For the same molecule, the TGI [4] was over 100 µM, the GI50 [5] was 1.66 µM and the TGI [5] was 7.07 µM. It also gave a GI50 [6] of 2.67 µM and a TGI [6] of over 100 µM.

Molecule `O=C(OCC(OC(=O)c1ccccc1)C(OC(=O)c1ccccc1)C(OC(=O)c1ccccc1)c1cnn(-c2ccccc2)n1)c1ccccc1` (stereo not drawn) has a TGI [1] of over 100 µM, a TGI [3] of over 100 µM and a TGI [7] of over 100 µM. For the same molecule, the TGI [4] was over 100 µM, the TGI [5] was over 100 µM and the TGI [6] was over 100 µM.

For `CCCCCCCCCCN1CCC(N2CCCCC2)CC1`, the GI50 [1] was 2.82 µM, the TGI [1] was 15.9 µM and the GI50 [2] was 1.3 µM. For the same molecule, the TGI [2] was 3.26 µM, the GI50 [3] was 1.47 µM and the TGI [3] was 3.55 µM. It also gave a GI50 [7] of 1.93 µM, a TGI [7] of 5.54 µM and a GI50 [4] of 3.74 µM. For the same molecule, the TGI [4] was 14.4 µM, the GI50 [5] was 1.83 µM and the TGI [5] was 5.21 µM. For the same molecule, the GI50 [6] was 0.627 µM and the TGI [6] was 2.98 µM.

For `Nc1ccccc1SC1CC(=O)N(c2ccc(Cl)c(Cl)c2)C1=O` (stereo not drawn), the GI50 [1] was 27.3 µM, the TGI [1] was 90.3 µM and the GI50 [2] was 17.9 µM. The TGI [2] was over 100 µM, the GI50 [3] was 26.1 µM and the TGI [3] was over 100 µM. For the same molecule, the GI50 [7] was 19.4 µM, the TGI [7] was over 100 µM and the GI50 [4] was over 100 µM. For the same molecule, the TGI [4] was over 100 µM, the GI50 [5] was 10.6 µM and the TGI [5] was over 100 µM. The GI50 [6] was 22.4 µM and the TGI [6] was over 100 µM.

For `Cc1ccc(Nc2nnc(-c3ccc4c(c3)OCO4)o2)c(C)c1`, the TGI [1] was over 100 µM, the TGI [2] was over 100 µM and the TGI [3] was over 100 µM. The TGI [7] was over 100 µM, the TGI [4] was over 100 µM and the TGI [5] was over 100 µM. The TGI [6] was over 100 µM.

In the case of `Cc1ccc(S(=O)(=O)NC(=O)NC2=NC(C)(C)N(c3ccc(Cl)c(Cl)c3)C(N)=N2)cc1`, the TGI [1] is reported as over 100 µM, the TGI [2] is reported as over 100 µM and the TGI [7] is reported as over 100 µM. It also gave a TGI [4] of over 100 µM and a TGI [6] of over 100 µM.

`O=[N+]([O-])c1ccc(CSCc2ccc(Cl)cc2)cc1` gave a TGI [1] of over 100 µM, a TGI [2] of over 100 µM and a TGI [3] of over 100 µM. It also gave a TGI [7] of over 100 µM, a TGI [4] of over 100 µM and a TGI [5] of over 100 µM. For the same molecule, the TGI [6] was over 100 µM.

For `Clc1cc(Cl)cc(Nc2ccc3cc(OCCCN4CCOCC4)ccc3n2)c1`, the GI50 [1] was 1.58 µM, the TGI [1] was 3.11 µM and the GI50 [2] was 1.81 µM. It also gave a TGI [2] of 4.27 µM, a GI50 [7] of 2.08 µM and a TGI [7] of 5.22 µM. For the same molecule, the GI50 [5] was 2.2 µM and the TGI [5] was 7.08 µM.

Work on `Cc1nn(C(=O)c2ccc(Cl)cc2)c2c1C(c1ccc(O)cc1)SC(N)=N2` (stereo not drawn) yielded a TGI [1] of over 10 µM, a TGI [2] of over 10 µM and a TGI [3] of over 10 µM. For the same molecule, the TGI [7] was over 10 µM, the TGI [4] was over 10 µM and the TGI [5] was over 10 µM. It also gave a TGI [6] of over 10 µM.

For `COCOc1ccc(C2(O)Oc3cc(OCOC)ccc3C2C)c(O)c1` (stereo not drawn), the TGI [1] was 31.6 µM, the TGI [2] was 25.3 µM and the TGI [3] was 28.1 µM. It also gave a TGI [7] of 32.8 µM, a TGI [4] of 31.3 µM and a TGI [5] of over 100 µM. For the same molecule, the TGI [6] was 75.1 µM.

`CCOC(CN(C)C(=S)Nc1cccc2ccccc12)OCC` gave a TGI [1] of over 10 µM, a TGI [2] of over 10 µM and a TGI [3] of over 10 µM. The TGI [7] was over 10 µM, the TGI [5] was over 10 µM and the TGI [6] was over 10 µM.

`CC/C=C/C/C=C/C/C=C/C/C=C/C/C=C/C/C=C/CCC(=O)Nc1ccn([C@@H]2O[C@H](CO)[C@@H](O)C2(F)F)c(=O)n1` showed a GI50 [1] of 0.0141 µM, a TGI [1] of 25.5 µM and a GI50 [2] of 7.65 µM. It also gave a TGI [2] of 28.9 µM, a GI50 [3] of 0.2 µM and a TGI [3] of 17.5 µM. For the same molecule, the GI50 [7] was 0.261 µM, the TGI [7] was 37.7 µM and the GI50 [4] was 2.83 µM. The TGI [4] was over 60.8 µM, the GI50 [5] was 0.245 µM and the TGI [5] was 39 µM. For the same molecule, the GI50 [6] was 0.0387 µM and the TGI [6] was 8.3 µM.

For `CCCCCCCCCCCCOC1C(C(CC(=O)NCCN2CCCC2)NS(=O)(=O)c2cc(Cl)cc(Cl)c2)OC2OC(C)(C)OC21` (stereo not drawn), the GI50 [1] was 1.68 µM, the TGI [1] was 3.27 µM and the GI50 [2] was 1.81 µM. The TGI [2] was 3.23 µM, the GI50 [3] was 1.41 µM and the TGI [3] was 3.03 µM. It also gave a GI50 [7] of 2.11 µM, a TGI [7] of 3.98 µM and a GI50 [4] of 2.17 µM. The TGI [4] was 4.34 µM, the GI50 [5] was 1.23 µM and the TGI [5] was 3.21 µM. The GI50 [6] was 1.48 µM and the TGI [6] was 3.83 µM.

For `C[C@H]1CCC/C=C/[C@@H]2C[C@H](O)C[C@H]2[C@H](O)[C@@H](SCC(O)CO)CC(=O)O1` (stereo partly drawn), the GI50 [1] was 2.75 µM, the TGI [1] was 15 µM and the GI50 [2] was 12.1 µM. For the same molecule, the TGI [2] was 28.1 µM, the GI50 [3] was 35.5 µM and the TGI [3] was over 100 µM. It also gave a GI50 [7] of 95.6 µM, a TGI [7] of over 100 µM and a GI50 [4] of 41.1 µM. It also gave a TGI [4] of over 100 µM, a GI50 [6] of 29 µM and a TGI [6] of 96.8 µM.

For `O=C1C(Cl)=C(Nc2ccccc2O)C(=O)N1Cc1ccccc1`, the GI50 [1] was 16.8 µM, the TGI [1] was 30.4 µM and the GI50 [3] was 19.7 µM. For the same molecule, the TGI [3] was 37.4 µM, the GI50 [7] was 29.1 µM and the TGI [7] was 97.2 µM. The GI50 [4] was 18.5 µM, the TGI [4] was 32.7 µM and the GI50 [5] was 12.5 µM. For the same molecule, the TGI [5] was 27.2 µM, the GI50 [6] was 51.7 µM and the TGI [6] was over 100 µM.
